What was measured:
Hamster [1] = experiment: Absorption clearance in hamster at 400 uM administered as intestinal single-pass perfusion up to 1 hr by LC-MS/MS analysis in presence of BNPP; format: ADME, organism-based; settings: cricetinae, in vivo, other
Hamster [2] = experiment: Degradation clearance in hamster at 400 uM administered as intestinal single-pass perfusion up to 1 hr by LC-MS/MS analysis in presence of BNPP; format: ADME, organism-based; settings: cricetinae, in vivo, other
Hamster [3] = experiment: Absorption clearance in hamster at 400 uM administered as intestinal single-pass perfusion up to 1 hr by LC-MS/MS analysis; format: ADME, organism-based; settings: cricetinae, in vivo, other
Hamster [4] = experiment: Degradation clearance in hamster at 400 uM administered as intestinal single-pass perfusion up to 1 hr by LC-MS/MS analysis; format: ADME, organism-based; settings: cricetinae, in vivo, other
[5] = Apparent permeability coefficient of parent compound in hamster at 400 uM administered as intestinal single-pass perfusion up to 1 hr by LC-MS/MS analysis; format: ADME, organism-based; settings: cricetinae
Hamster [6] = experiment: Drug metabolism in hamster assessed as production of piperinic acid at 400 uM administered as intestinal single-pass perfusion up to 1 hr by LC-MS/MS analysis; format: ADME, organism-based; settings: cricetinae, in vivo, other
Hamster [7] = experiment: Drug metabolism in hamster assessed as appearance rate of parent compound in portal vein at 400 uM administered as intestinal single-pass perfusion up to 1 hr by LC-MS/MS analysis in presence of BNPP; format: ADME, organism-based; settings: cricetinae, in vivo, other
Hamster [8] = experiment: Drug metabolism in hamster assessed as disappearance rate of parent compound in intestine at 400 uM administered as intestinal single-pass perfusion up to 1 hr by LC-MS/MS analysis in presence of BNPP; format: ADME, organism-based; settings: cricetinae, in vivo, other
[9] = MRT (0 to t) in hamster at 30 mg/kg, po; format: ADME, organism-based; parameters: dose 30 mg/kg, route oral; settings: cricetinae, in vivo
[10] = Tmax in hamster at 30 mg/kg, po; format: ADME, organism-based; parameters: dose 30 mg/kg, route oral; settings: cricetinae, in vivo
[11] = Oral bioavailability in hamster at 30 mg/kg; format: ADME, organism-based; settings: cricetinae, in vivo
[12] = AUC (0 to t) in hamster at 10 mg/kg, iv; format: ADME, organism-based; parameters: dose 10 mg/kg, route intravenous; settings: cricetinae, plasma
[13] = AUC (0 to t) in hamster at 30 mg/kg, po; format: ADME, organism-based; parameters: dose 30 mg/kg, route oral; settings: cricetinae, plasma
[14] = Cmax in hamster at 30 mg/kg, po; format: ADME, organism-based; parameters: dose 30 mg/kg, route oral; settings: cricetinae, in vivo
[15] = MRT (0 to t) in hamster at 10 mg/kg, iv; format: ADME, organism-based; parameters: dose 10 mg/kg, route intravenous; settings: cricetinae, in vivo
[16] = Elimination half life in hamster at 10 mg/kg, iv; format: ADME, organism-based; parameters: dose 10 mg/kg, route intravenous; settings: cricetinae, in vivo, read-out: beta t1/2 (converted)
Hamster [17] = experiment: Volume of distribution in hamster at 10 mg/kg, iv; format: ADME, organism-based; parameters: dose 10 mg/kg, route intravenous; settings: cricetinae, in vivo
[18] = Stability of the compound at simulated gastrointestinal pH conditions assessed as degradation; format: ADME
[19] = Stability of the compound in hamster intestinal washings assessed as compound remaining at 100 uM after 1 hr by LC-MS/MS analysis; format: ADME; settings: cricetinae, read-out: Stability
[20] = Drug metabolism in hamster liver microsomes assessed as carboxylesterase-mediated compound hydrolysis at 50 uM after 30 mins; format: ADME; settings: cricetinae, 0.5 h
[21] = Drug metabolism in hamster kidney microsomes assessed as carboxylesterase-mediated compound hydrolysis at 50 uM after 30 mins; format: ADME; settings: cricetinae, 0.5 h
[22] = Drug metabolism in hamster intestinal microsomes assessed as carboxylesterase-mediated compound hydrolysis at 50 uM after 30 mins; format: ADME, Intestine; settings: cricetinae, 0.5 h
[23] = Drug metabolism in hamster liver microsomes assessed as carboxylesterase-mediated compound hydrolysis at 50 uM after 30 mins in presence of BNPP; format: ADME; settings: cricetinae, 0.5 h
[24] = Drug metabolism in hamster kidney microsomes assessed as carboxylesterase-mediated compound hydrolysis at 50 uM after 30 mins in presence of BNPP; format: ADME; settings: cricetinae, 0.5 h
[25] = Drug metabolism in hamster liver microsomes assessed as carboxylesterase-mediated compound hydrolysis at 50 uM after 30 mins in presence of BNPP in presence of BNPP; format: ADME; settings: cricetinae, 0.5 h
Hamster [26] = experiment: Drug metabolism in hamster assessed as appearance rate of parent compound in portal vein at 400 uM administered as intestinal single-pass perfusion up to 1 hr by LC-MS/MS analysis; format: ADME, organism-based; settings: cricetinae, in vivo, other
Hamster [27] = experiment: Drug metabolism in hamster assessed as disappearance rate of parent compound in intestine at 400 uM administered as intestinal single-pass perfusion up to 1 hr by LC-MS/MS analysis; format: ADME, organism-based; settings: cricetinae, in vivo, other
[28] = Apparent permeability coefficient of parent compound in hamster at 400 uM administered as intestinal single-pass perfusion up to 1 hr by LC-MS/MS analysis in presence of BNPP; format: ADME, organism-based; settings: cricetinae, with BNPP
Hamster [29] = experiment: Drug metabolism in hamster intestinal S9 fraction assessed as production of piperinic acid at 400 uM administered as intestinal single-pass perfusion up to 1 hr by LC-MS/MS analysis in presence of BNPP; format: ADME, Intestine; settings: cricetinae, s9, 1 h
[30] = Drug metabolism in hamster intestinal S9 fraction assessed as production of piperinic acid by Michaelis-Menten equation analysis; format: ADME, Intestine; settings: cricetinae
[31] = Permeability from apical to basolateral side of human Caco2 cells at 5 uM after 1 hr in presence of BNPP; format: ADME, cell-based; settings: caco-2, 1 h
[32] = Permeability from basolateral to apical side of human Caco2 cells at 5 uM after 1 hr in presence of BNPP; format: ADME, cell-based; settings: caco-2, 1 h
[33] = Drug recovery in human Caco2 cells at 5 uM after 1 hr in presence of BNPP; format: ADME, cell-based; settings: Caco-2, with BNPP, read-out: Drug recovery
[34] = Apparent permeability coefficient of compound in hamster treated with 400 uM of ethyl piperate administered as intestinal single-pass perfusion up to 1 hr by LC-MS/MS analysis in presence of BNPP; format: ADME, organism-based; settings: cricetinae
Hamster [35] = experiment: Drug metabolism in hamster assessed as appearance rate of compound in intestine treated with 400 uM of ethyl piperate administered as intestinal single-pass perfusion up to 1 hr by LC-MS/MS analysis; format: ADME, organism-based; settings: cricetinae, in vivo, other
[36] = Apparent permeability coefficient of compound in hamster treated with 400 uM of ethyl piperate administered as intestinal single-pass perfusion up to 1 hr by LC-MS/MS analysis; format: ADME, organism-based; settings: cricetinae
Hamster [37] = experiment: Drug metabolism in hamster assessed as appearance rate of compound in portal vein treated with 400 uM of ethyl piperate administered as intestinal single-pass perfusion up to 1 hr by LC-MS/MS analysis in presence of BNPP; format: ADME, organism-based; settings: cricetinae, in vivo, other
Hamster [38] = experiment: Drug metabolism in hamster assessed as appearance rate of compound in portal vein treated with 400 uM of ethyl piperate administered as intestinal single-pass perfusion up to 1 hr by LC-MS/MS analysis; format: ADME, organism-based; settings: cricetinae, in vivo, other
Hamster [39] = experiment: Drug metabolism in hamster assessed as appearance rate of compound in intestine treated with 400 uM of ethyl piperate administered as intestinal single-pass perfusion up to 1 hr by LC-MS/MS analysis in presence of BNPP; format: ADME, organism-based; settings: cricetinae, in vivo, other

Structure (SMILES): CCOC(=O)/C=C/C=C/c1ccc2c(c1)OCO2
- CL(app) (Hamster [1]): 55 µL/min
- CL (Hamster [2]): 121.6 µL/min
- CL(app) (Hamster [3]): 66.7 µL/min
- CL (Hamster [4]): 339.9 µL/min
- Papp at 1 h, 400 µM [5]: 77 ×10⁻⁶ cm/s
- Drug metabolism (Hamster [6]): 0.196 nmol/min/mg
- Drug metabolism (Hamster [7]): 9.8 nmol/min
- Drug metabolism (Hamster [8]): 62.7 nmol/min
- MRT last [9]: 24 min
- Tmax [10]: 9 min
- bioavailability [11]: 0.47%
- AUC(0-t) [12]: 2450 ng·h/mL
- AUC(0-t) [13]: 34.5 ng·h/mL
- Cmax [14]: 70.4 ng/mL
- MRT last [15]: 25.8 min
- half-life [16]: 37.8 min
- Vz/F (Hamster [17]): 3.76 L/kg
- Stability [18]: Stable
- remaining at 1 h, 100 µM [19]: > 80%
- Drug metabolism [20]: metabolite_detected
- Drug metabolism [21]: metabolite_detected
- Drug metabolism [22]: metabolite_detected
- Drug metabolism [23]: metabolite_not_detected
- Drug metabolism [24]: metabolite_not_detected
- Drug metabolism [25]: metabolite_not_detected
- Drug metabolism (Hamster [26]): 10.8 nmol/min
- Drug metabolism (Hamster [27]): 76.5 nmol/min
- Papp at 1 h, 400 µM [28]: 59.8 ×10⁻⁶ cm/s
- Drug metabolism (Hamster [29]): 0.06 nmol/min/mg
- Km [30]: 7.56 µM
- Vmax [30]: 0.16 nmol/min/mg
- permeability [31]: impermeable
- permeability [32]: impermeable
- recovery at 1 h, 5 µM [33]: > 90%

Structure (SMILES): O=C(O)/C=C/C=C/c1ccc2c(c1)OCO2 [PIPERIC ACID]
- Papp at 1 h [34]: 127 ×10⁻⁶ cm/s
- Drug metabolism (Hamster [35]): 2.3 nmol/min
- Papp at 1 h [36]: 373 ×10⁻⁶ cm/s
- Drug metabolism (Hamster [37]): 21.7 nmol/min
- Drug metabolism (Hamster [38]): 52.1 nmol/min
- Drug metabolism (Hamster [39]): 2 nmol/min

— ChEMBL document CHEMBL3526108, “Contribution of carboxylesterase in hamster to the intestinal first-pass loss and low bioavailability of ethyl piperate, an effective lipid-lowering drug candidate” (Drug Metab Dispos, 2011)
